Data from patent US4234579A, “Penicillanic acid 1,1-dioxides as β-lactamase inhibitors” (priority 1979, dated 1980).
In brackets after ≈: the same amount, converted by molar mass. Read-outs that look alike come from different tables or passages of the source.

Experiments:
Bacteroides fragilis = experiment: Mode MIC of antibiotic and PA 1,1-Dioxide alone and in combination; assay type: cell-based; conditions: for MIC: Bacteroides fragilis, 18 h, read-out: Mode MIC alone; for Mode MIC's of Cefazolin and PA 1,1-Dioxide in Combination: Cefazolin + PA 1,1-Dioxide in combination
Description: (§1) As indicated hereinbefore, the compounds of formula I, wherein R^1 is hydrogen or an ester-forming residue readily hydrolyzable in vivo, are antibacterial agents of medium potency. […] The procedure which is followed is the one recommended by the International Collaborative Study on Antibiotic Sensitivity Testing (Ericcson and Sherris, Acta. Pathologica et Microbiologia Scandinav, Supp. 217, Section B: 64-68 [1971]), and employs brain heart infusion (BHI) agar and the inocula replicating device. Overnight growth tubes are diluted 100 fold for use as the standard inoculum (20,000-10,000 cells in approximately 0.002 ml. are placed on the agar surface; 20 ml. of BHI agar/dish). Twelve 2 fold dilutions of the test compound are employed, with initial concentration of the test drug being 200 mcg./ml. Single colonies are disregarded when reading plates after 18 hrs. at 37° C. The susceptibility (MIC) of the test organism is accepted as the lowest concentration of compound capable of producing complete inhibition of growth as judged by the naked eye.
(§2) The manner in which the said compounds of the formula I increase the effectiveness of a β-lactam antibiotic can be appreciated by reference to experiments in which the MIC of a given antibiotic alone, and a compound of the formula I wherein R^1 is hydrogen, alone, are measured. These MIC's are then compared with the MIC values obtained with a combination of the given antibiotic and the compound of the formula I wherein R^1 is hydrogen. […] The MIC values of combinations are measured using the method described by Barry and Sabath in "Manual of Clinical Microbiology", edited by Lenette, Spaulding and Truant, 2nd Edition, 1974, American Society for Microbiology.
(§3) From Table II, it can be seen that against 19 ampicillin-resistant strains of Staphylococcus aureus, the mode MIC of ampicillin, and of penicillanic acid 1,1-dioxide, is 200 mcg./ml. […] The other entries in Table II show enhancement of the antibacterial effectiveness of ampicillin against 26 ampicillin resistant strains of Haemophilus influenzae, 18 ampicillin resistant strains of Klebsiella pneumoniae, and 15 strains of the anerobe Bacteroides fragilis. Tables III, IV and V show enhancement of the antibacterial potency of benzylpenicillin (penicillin G) carbenicillin (α-carboxybenzylpenicillin) and cefazolin, respectively, against strains of S. aureus, H. influenzae, K. pneumoniae and Bacteroides fragilis.

Haemophilus influenzae = experiment: as above; assay type: cell-based; conditions: for MIC: Haemophilus influenzae, 18 h, alone; for Mode MIC's of Cefazolin and PA 1,1-Dioxide in Combination: Cefazolin + PA 1,1-Dioxide in combination
Description: as §1, §2, §3

Staphylococcus aureus [1] = experiment: as above; assay type: cell-based; conditions: for MIC: Staphylococcus aureus, 18 h, read-out: Mode MIC alone; for Mode MIC's of Cefazolin and PA 1,1-Dioxide in Combination: Cefazolin + PA 1,1-Dioxide in combination
Description: as §1, §2, §3

Klebsiella pneumoniae [2] = experiment: as above; assay type: cell-based; conditions: for MIC: Klebsiella pneumoniae, 18 h, read-out: Mode MIC alone; for Mode MIC's of Cefazolin and PA 1,1-Dioxide in Combination: Cefazolin + PA 1,1-Dioxide in combination
Description: as §1, §2, §3

microbial β-lactamases = experiment: Inhibition of microbial β-lactamases; assay type: biochemical; conditions: result in words
Staphylococcus epidermis = experiment: In vitro antibacterial activity (MIC), Table I; assay type: cell-based; conditions: BHI agar, 18 hrs. at 37° C.
Description: as §1

Enterobacter clocae = experiment: In vitro antibacterial activity (MIC), Table I; assay type: cell-based; conditions: BHI agar, 18 hrs. at 37° C.
Description: as §1

Providencia = experiment: In vitro antibacterial activity (MIC), Table I; assay type: cell-based; conditions: BHI agar, 18 hrs. at 37° C.
Description: as §1

Salmonella typhimurium = experiment: In vitro antibacterial activity (MIC), Table I; assay type: cell-based; conditions: Salmonella enterica, BHI agar, 18 hrs. at 37° C.
Description: as §1

Escherichia coli = experiment: In vitro antibacterial activity (MIC), Table I; assay type: cell-based; conditions: BHI agar, 18 hrs. at 37° C.
Description: as §1

Pseudomonas putida = experiment: In vitro antibacterial activity (MIC), Table I; assay type: cell-based; conditions: BHI agar, 18 hrs. at 37° C.
Description: as §1

Pseudomonas aeruginosa = experiment: In vitro antibacterial activity (MIC), Table I; assay type: cell-based; conditions: BHI agar, 18 hrs. at 37° C.
Description: as §1

Serratia marcescens = experiment: In vitro antibacterial activity (MIC), Table I; assay type: cell-based; conditions: BHI agar, 18 hrs. at 37° C.
Description: as §1

Staphylococcus aureus [3] = experiment: In vitro antibacterial activity (MIC), Table I; assay type: cell-based; conditions: BHI agar, 18 hrs. at 37° C.
Description: as §1

Klebsiella pneumoniae [4] = experiment: In vitro antibacterial activity (MIC), Table I; assay type: cell-based; conditions: BHI agar, 18 hrs. at 37° C.
Description: as §1

Proteus mirabilis = experiment: In vitro antibacterial activity (MIC), Table I; assay type: cell-based; conditions: BHI agar, 18 hrs. at 37° C.
Description: as §1

Citrobacter freundii = experiment: In vitro antibacterial activity (MIC), Table I; assay type: cell-based; conditions: BHI agar, 18 hrs. at 37° C.
Description: as §1

Proteus morgani = experiment: In vitro antibacterial activity (MIC), Table I; assay type: cell-based; conditions: BHI agar, 18 hrs. at 37° C.
Description: as §1

Hemophilus influenzae = experiment: In vitro antibacterial activity (MIC), Table I; assay type: cell-based; conditions: Haemophilus influenzae; BHI agar, 18 hrs. at 37° C.
Description: as §1

Neisseria gonorrhoeae = experiment: In vitro antibacterial activity (MIC), Table I; assay type: cell-based; conditions: BHI agar, 18 hrs. at 37° C.
Description: as §1

Pasteurella multocida = experiment: In vitro antibacterial activity (MIC), Table I; assay type: cell-based; conditions: BHI agar, 18 hrs. at 37° C.
Description: as §1

Streptococcus faecalis = experiment: In vitro antibacterial activity (MIC), Table I; assay type: cell-based; conditions: Enterococcus faecalis; BHI agar, 18 hrs. at 37° C.
Description: as §1

Enterobacter aerogenes = experiment: In vitro antibacterial activity (MIC), Table I; assay type: cell-based; conditions: Klebsiella aerogenes; BHI agar, 18 hrs. at 37° C.
Description: as §1

Streptococcus pyogenes = experiment: In vitro antibacterial activity (MIC), Table I; assay type: cell-based; conditions: BHI agar, 18 hrs. at 37° C.
Description: as §1

[5] = tested on: many microorganisms, particularly those which produce a β-lactamase; experiment: Enhancement of antibacterial effectiveness of β-lactam antibiotics (combination MIC); assay type: cell-based; conditions: result in words; combination with β-lactam antibiotic
Protocol: as §2

Structure (SMILES): Cc1nnc(SCC2=C(C(=O)O)N3C(=O)[C@@H](NC(=O)Cn4cnnn4)[C@H]3SC2)s1 [Cefazolin, reference compound]
- MIC (Bacteroides fragilis; Table V, 15 strains, alone): 200 µg/mL
- Mode MIC's of Cefazolin and PA 1,1-Dioxide in Combination (Bacteroides fragilis; Table V, 15 strains): 6.25 µg/mL
- MIC (Haemophilus influenzae; Table V, 25 strains, read-out: Mode MIC alone): 25 µg/mL
- Mode MIC's of Cefazolin and PA 1,1-Dioxide in Combination (Haemophilus influenzae; Table V, 25 strains): 3.12 µg/mL
- MIC (Staphylococcus aureus [1]; Table V, 20 strains, alone): 0.78 µg/mL
- Mode MIC's of Cefazolin and PA 1,1-Dioxide in Combination (Staphylococcus aureus [1]; Table V, 20 strains): 0.2 µg/mL
- MIC (Klebsiella pneumoniae [2]; Table V, 3 strains, alone): 100 µg/mL
- Mode MIC's of Cefazolin and PA 1,1-Dioxide in Combination (Klebsiella pneumoniae [2]; Table V, 3 strains): 6.25 µg/mL

Structure (SMILES): CC1(C)[C@H](C(=O)O)N2C(=O)C[C@H]2S1(=O)=O [Penicillanic Acid 1,1-Dioxide]
- inhibition of microbial β-lactamases (microbial β-lactamases): potent inhibitors of microbial β-lactamases
- MIC (Staphylococcus epidermis): 200 µg/mL (≈ 857 µM)
- MIC (Enterobacter clocae): 100 µg/mL (≈ 429 µM)
- MIC (Providencia): 100 µg/mL (≈ 429 µM)
- MIC (Salmonella typhimurium): 50 µg/mL (≈ 214 µM)
- MIC (Escherichia coli): 50 µg/mL (≈ 214 µM)
- MIC (Pseudomonas putida): > 200 µg/mL
- MIC (Pseudomonas aeruginosa): 200 µg/mL (≈ 857 µM)
- MIC (Serratia marcescens): 100 µg/mL (≈ 429 µM)
- MIC (Staphylococcus aureus [3]): 100 µg/mL (≈ 429 µM)
- MIC (Klebsiella pneumoniae [4]): 50 µg/mL (≈ 214 µM)
- MIC (Proteus mirabilis): 100 µg/mL (≈ 429 µM)
- MIC (Citrobacter freundii): 50 µg/mL (≈ 214 µM)
- MIC (Proteus morgani): 100 µg/mL (≈ 429 µM)
- MIC (Hemophilus influenzae): > 50 µg/mL
- MIC (Neisseria gonorrhoeae): 0.312 µg/mL (≈ 1.34 µM)
- MIC (Pasteurella multocida): 50 µg/mL (≈ 214 µM)
- MIC (Streptococcus faecalis): > 200 µg/mL
- MIC (Enterobacter aerogenes): 25 µg/mL (≈ 107 µM)
- MIC (Streptococcus pyogenes): 100 µg/mL (≈ 429 µM)
- MIC (Bacteroides fragilis): 50 µg/mL
- Mode MIC's of ampicillin and PA 1,1-Dioxide in combination (Bacteroides fragilis; Table II, 15 strains, ampicillin + PA 1,1-Dioxide in combination): 0.78 µg/mL
- Mode MIC alone (Bacteroides fragilis; Table III, 15 strains, alone): 50 µg/mL
- Mode MIC's of penicillin G and PA 1,1-Dioxide in combination (Bacteroides fragilis; Table III, 15 strains, penicillin G + PA 1,1-Dioxide in combination): 0.39 µg/mL
- Mode MIC alone (Bacteroides fragilis; Table IV, 15 strains, alone): 50 µg/mL
- Mode MIC's of carbenicillin and PA 1,1-Dioxide in combination (Bacteroides fragilis; Table IV, 15 strains, carbenicillin + PA 1,1-Dioxide in combination): 0.78 µg/mL
- Mode MIC's of Cefazolin and PA 1,1-Dioxide in Combination (Bacteroides fragilis; Table V, 15 strains): 6.25 µg/mL
- Mode MIC alone (Bacteroides fragilis; Table V, 15 strains, alone): 50 µg/mL
- MIC (Haemophilus influenzae; read-out: Mode MIC alone, Table II, 26 ampicillin resistant strains): > 200 µg/mL
- MIC (Haemophilus influenzae; read-out: Mode MIC alone, Table III, 25 strains): 100 µg/mL
- MIC (Haemophilus influenzae; read-out: Mode MIC alone, Table IV, 25 strains): 100 µg/mL
- MIC (Haemophilus influenzae; read-out: Mode MIC alone, Table V, 25 strains): 200 µg/mL
- Mode MIC's of ampicillin and PA 1,1-Dioxide in combination (Haemophilus influenzae; Table II, 26 ampicillin resistant strains, ampicillin + PA 1,1-Dioxide in combination): 3.12 µg/mL
- Mode MIC's of penicillin G and PA 1,1-Dioxide in combination (Haemophilus influenzae; Table III, 25 strains, penicillin G + PA 1,1-Dioxide in combination): 1.56 µg/mL
- Mode MIC's of carbenicillin and PA 1,1-Dioxide in combination (Haemophilus influenzae; Table IV, 25 strains, carbenicillin + PA 1,1-Dioxide in combination): 0.78 µg/mL
- Mode MIC's of Cefazolin and PA 1,1-Dioxide in Combination (Haemophilus influenzae; Table V, 25 strains): 0.2 µg/mL
- MIC (Staphylococcus aureus [1]): 200 µg/mL
- Mode MIC's of ampicillin and PA 1,1-Dioxide in combination (Staphylococcus aureus [1]; Table II, 19 ampicillin-resistant strains, ampicillin + PA 1,1-Dioxide in combination): 3.12 µg/mL
- Mode MIC alone (Staphylococcus aureus [1]; Table III, 20 strains, alone): 200 µg/mL
- Mode MIC's of penicillin G and PA 1,1-Dioxide in combination (Staphylococcus aureus [1]; Table III, 20 strains, penicillin G + PA 1,1-Dioxide in combination): 6.25 µg/mL
- Mode MIC alone (Staphylococcus aureus [1]; Table IV, 20 strains, alone): 200 µg/mL
- Mode MIC's of carbenicillin and PA 1,1-Dioxide in combination (Staphylococcus aureus [1]; Table IV, 20 strains, carbenicillin + PA 1,1-Dioxide in combination): 6.25 µg/mL
- Mode MIC's of Cefazolin and PA 1,1-Dioxide in Combination (Staphylococcus aureus [1]; Table V, 20 strains): 25 µg/mL
- Mode MIC alone (Staphylococcus aureus [1]; Table V, 20 strains, alone): 200 µg/mL
- MIC (Klebsiella pneumoniae [2]): 50 µg/mL
- Mode MIC's of ampicillin and PA 1,1-Dioxide in combination (Klebsiella pneumoniae [2]; Table II, 18 ampicillin resistant strains, ampicillin + PA 1,1-Dioxide in combination): 6.25 µg/mL
- Mode MIC alone (Klebsiella pneumoniae [2]; Table III, 24 strains, alone): 50 µg/mL
- Mode MIC's of penicillin G and PA 1,1-Dioxide in combination (Klebsiella pneumoniae [2]; Table III, 24 strains, penicillin G + PA 1,1-Dioxide in combination): 12.5 µg/mL
- Mode MIC alone (Klebsiella pneumoniae [2]; Table IV, 16 strains, alone): 50 µg/mL
- Mode MIC's of carbenicillin and PA 1,1-Dioxide in combination (Klebsiella pneumoniae [2]; Table IV, 16 strains, carbenicillin + PA 1,1-Dioxide in combination): 6.25 µg/mL
- Mode MIC's of Cefazolin and PA 1,1-Dioxide in Combination (Klebsiella pneumoniae [2]; Table V, 3 strains): 25 µg/mL
- Mode MIC alone (Klebsiella pneumoniae [2]; Table V, 3 strains, alone): 50 µg/mL
- enhancement of antibacterial effectiveness of β-lactam antibiotics [5]: enhances the effectiveness of ampicillin
